test: Antiviral activity was tested in cells acutely infected with HIV-1 Reverse transcriptase

IC50 | SMILES
> 100 µM | CN1N=C(N)c2cn(C3O[C@H](CO)[C@H]4O[C@H]34)c3ncnc1c23 (stereo partly specified) [[4-(3-Amino-5-methyl-5H-1,4,5,6,8-pentaaza-acenaphthylen-1-yl)-3,6-dioxa-bicyclo[3.1.0]hex-2-yl]-methanol(2',3'-epoxyTCN)]

test: Antiviral activity was tested in cells acutely infected with HIV-1 RT (reverse transcriptase)

SMILES | IC50
C[C@H]1OC(n2cc3c4c(ncnc42)N(C)N=C3N)[C@H](O)[C@@H]1O (stereo partly specified) | > 100 µM
CN1N=C(N)c2cn([C@H]3CC[C@@H](CO)O3)c3ncnc1c23 | 21 µM
CN1N=C(N)c2cn(C3C=C[C@@H](CO)O3)c3ncnc1c23 (stereo partly specified) [[5-(3-Amino-5-methyl-5H-1,4,5,6,8-pentaaza-acenaphthylen-1-yl)-2,5-dihydro-furan-2-yl]-methanol] | 100 µM

Further lines, results first:

IC50 | SMILES
> 100 µM | CN1N=C(N)c2cn([C@@H]3O[C@H](CO)C[C@H]3O)c3ncnc1c23
> 100 µM | CN1N=C(N)c2cn(C3C[C@@H](O)[C@@H](CO)O3)c3ncnc1c23 (stereo partly specified) [5-(3-Amino-5-methyl-5H-1,4,5,6,8-pentaaza-acenaphthylen-1-yl)-2-hydroxymethyl-tetrahydro-furan-3-ol]
